# Data from US20250212875A1, “PESTICIDAL AND HERBICIDAL COMPOUNDS AND METHODS OF USE THEREOF” (AG PLENUS LTD, priority 2022, published 2025).
# Assays:
# [1] = system: monocot and eudicot weeds species; experiment: LTP weed panel, summary in words; format: in vivo; details: for growth inhibition (in words): mainly in pre-emergence applications
# Poa annua [2] = experiment: LTP post-emergence greenhouse screen
# Protocol: (§5) A basic panel of eight weed species (Table 3) sowed in 4×4×7 cm plastic pots containing a garden mix (klasmann). Each specie was sowed in a separate pot. In each pot, 10-15 seeds were sowed according to the specie viability. Timing of application determined at a 1-2 true leaf stage. The plants grew for 30 days in a controlled greenhouse (26±2° C. day, 20±2° C. night). Flood irrigation (tap water+Shefer 5:3:8 8 mM) was given at a 50% water content by weight. Two days before application, the tested plants thinned down to three plants per pot. Compounds were soluble in water (DDW), and commercial herbicide control was soluble in formulation B (Table 4). Before application, 1% (v/v) crop oil and 0.02% (v/v) surfactant (Tergitol™ 15-S-7) were added to the solution. Application was conducted with an industrial sprayer (TeeJet 6502E nozzle) at a rate of 2 kg/ha and spray volume of 4801/ha. Plants were evaluated at 3 time points (4, 8, 12 days after application (DAA)). At each time point, visual phenotyping was recorded using a scale of 0-6 (0: no visible effect, 6: maximum effect). At 12 DAA, plants foliage was harvested, dried and weighed for dry weight analysis.
# (§6) Post-emergence advanced wide panel experiment included 24 weed species (Table 5). Application was conducted at 2 rates of 2 kg/ha and 0.25 kg/ha and spray volume of 480 l/ha. Visual phenotyping was recorded at 4, 11, 17 and 20 DAA using a scale of 0-6 (0: no visible effect, 6: maximum effect). At 21 DAA, plants foliage was harvested, dried, and weighed for dry weight analysis. All experiments included an untreated control, a solvent control, and a positive control (commercial herbicide A.I.). Statistical analysis for visual phenotyping determined by a median value of ≥3.5 and Fisher test (pval≤0.05). Statistical analysis for dry weight determined by % inhibition ≥50 and T test (pval≤0.05), as well as Wilcox test (pval≤0.05).
# Lolium multiflorum [3] = experiment: LTP post-emergence greenhouse screen
# Protocol: (§7) A basic panel of eight weed species (Table 3) sowed in 4×4×7 cm plastic pots containing a garden mix (klasmann). Each specie was sowed in a separate pot. In each pot, 10-15 seeds were sowed according to the specie viability. Timing of application determined at a 1-2 true leaf stage. The plants grew for 30 days in a controlled greenhouse (26±2° C. day, 20±2° C. night). Flood irrigation (tap water+Shefer 5:3:8 8 mM) was given at a 50% water content by weight. Two days before application, the tested plants thinned down to three plants per pot. Compounds were soluble in water (DDW), and commercial herbicide control was soluble in formulation B (Table 4). Before application, 1% (v/v) crop oil and 0.02% (v/v) surfactant (Tergitol™ 15-S-7) were added to the solution. […] Plants were evaluated at 3 time points (4, 8, 12 days after application (DAA)). At each time point, visual phenotyping was recorded using a scale of 0-6 (0: no visible effect, 6: maximum effect). […]
# (§8) All experiments included an untreated control, a solvent control, and a positive control (commercial herbicide A.I.). Statistical analysis for visual phenotyping determined by a median value of ≥3.5 and Fisher test (pval≤0.05). Statistical analysis for dry weight determined by % inhibition ≥50 and T test (pval≤0.05), as well as Wilcox test (pval≤0.05).
# Lolium perenne [4] = experiment: LTP post-emergence greenhouse screen
# Protocol: as §7, §8
# Echinochloa colona [5] = experiment: LTP post-emergence greenhouse screen
# Protocol: as §5, §6
# Digitaria sanguinalis [6] = experiment: LTP post-emergence greenhouse screen
# Protocol: as §5, §6
# Poa annua [7] = experiment: LTP pre-emergence greenhouse screen; format: in vivo
# Protocol: (§1) Sowing was performed one day before application.
# (§2) Percentage of emergence was evaluated at 15 DAA.
# Echinochloa crus-galli [8] = experiment: LTP pre-emergence greenhouse screen; format: in vivo
# Protocol: as §1, §2
# Digitaria sanguinalis [9] = experiment: LTP pre-emergence greenhouse screen; format: in vivo
# Protocol: as §1, §2
# Echinochloa colona [10] = experiment: LTP pre-emergence greenhouse screen; format: in vivo
# Protocol: as §1, §2
# Lolium multiflorum [11] = experiment: LTP pre-emergence greenhouse screen; format: in vivo
# Protocol: as §1, §2
# Lolium perenne [12] = experiment: LTP pre-emergence greenhouse screen; format: in vivo
# Protocol: as §1, §2
# Phalaris paradoxa = experiment: LTP pre-emergence greenhouse screen; format: in vivo
# Protocol: as §1, §2
# Alopecurus myosuroides = experiment: LTP pre-emergence greenhouse screen; format: in vivo
# Protocol: as §1, §2
# Arabidopsis thaliana [13] = experiment: HTPS post-emergence on miniature dicot model plants; format: in vivo; details: green area (RGB), maximal concentration 1.5 kg/ha, read-out: Max inhibition (%)
# Protocol: Arabidopsis thaliana seeds were sown in 96 well plates filled with irrigated Sweet sand (10%>clay) that is washed from salts and minerals using tap water. 5-10 seeds were sown in the center of each well. 7-8 days post sowing, at 2 true leaves stage, thinning out was performed to ensure that compound application is done on a single plant per well. The plates were placed in a controlled greenhouse in a random order inside a bath which allows flooding irrigation with tap water supplemented with a fertilizer. Applied compounds were dissolved into a final solution of 50% acetone, 49.9% DDW, 0.1% tween-20. A 96 well plate was used as a stock plate for preparing application solutions for 8 repeats. Each row contained different concentrations per chemical. Maximal concentration for application was 1.5 kg/ha and dilution factor is 2.5. Chemical application was performed one day after thinning out in a chemical hood. 5 μL applied on first two true leaves in each well using 12 channel pipettes. Data collection: RGB (red, green, blue) data for green area per well was documented using camera. Data is collected at a few time points during the experiment: one day after thinning and before chemical application, two-, six- or nine-days post application. During the last two documentations, visual phenotyping was performed. Data analysis: Given RGB results and visual phenotype scores, a student t-test conducted to compare between treatment and control performance for continuous data (RGB) and Fisher exact test to analyze the non-continuous data (phenotypic scores). Dose-Response curves are generated for each treatment to infer ED50 and max. inhibition parameters, using treatment's log concentration range as the […] variable and normalized green area. Plate imaging performed at 11 and 18 DAA. RGB data for green area per well was documented and used to extract % inhibition. Dose-Response curves were built for each treatment to infer EC50, EC75 and EC90 parameters, using treatment's log concentration range as the independent variable and normalized green area as the dependent variable. Treatments were compared to controls performance given RGB results and using student's t-test (p-val≤0.05). Compounds 101, 110, 112, 119, 124, 125, 146, 154, 157, 172, 170, 169, 112, and 166 were applied in either or both pre- and post-emergence mode to either or both monocot and dicot model plants, following the methods described above. The compounds were applied as a gradient of concentrations as listed above, from which the ED50 was calculated.
# Alopecurus monureide's = experiment: LTP post-emergence greenhouse screen
# Protocol: as §5, §6
# Setaria viridis = experiment: LTP post-emergence greenhouse screen
# Protocol: as §5, §6
# [14] = system: monocot and dicot model plants; experiment: HTPS model plants, summary in words; format: in vivo; details: HTPS systems where they were tested
# Protocol: Arabidopsis thaliana seeds were sown in 96 well plates filled with irrigated Sweet sand (10%>clay) that is washed from salts and minerals using tap water. 5-10 seeds were sown in the center of each well. 7-8 days post sowing, at 2 true leaves stage, thinning out was performed to ensure that compound application is done on a single plant per well. The plates were placed in a controlled greenhouse in a random order inside a bath which allows flooding irrigation with tap water supplemented with a fertilizer. Applied compounds were dissolved into a final solution of 50% acetone, 49.9% DDW, 0.1% tween-20.
# A 96 well plate was used as a stock plate for preparing application solutions for 8 repeats. Each row contained different concentrations per chemical. Maximal concentration for application was 1.5 kg/ha and dilution factor is 2.5. Chemical application was performed one day after thinning out in a chemical hood. 5 μL applied on first two true leaves in each well using 12 channel pipettes. […]
# (§3) Compounds 101, 110, 112, 119, 124, 125, 146, 154, 157, 172, 170, 169, 112, and 166 were applied in either or both pre- and post-emergence mode to either or both monocot and dicot model plants, following the methods described above. The compounds were applied as a gradient of concentrations as listed above, from which the ED50 was calculated.
# Echinochloa crus-galli [15] = experiment: LTP post-emergence greenhouse screen
# Protocol: as §5, §8
# Amaranthus tuberculatus = experiment: LTP post-emergence greenhouse screen; format: in vivo
# Matricaria chamomilla = experiment: LTP pre-emergence greenhouse screen; format: in vivo
# Protocol: as §1, §2
# Amaranthus palmeri [16] = experiment: LTP pre-emergence greenhouse screen; format: in vivo
# Protocol: as §1, §2
# Galium aparine = experiment: LTP post-emergence greenhouse screen
# Protocol: as §7, §8
# Eragrostis teff = experiment: HTPS pre-emergence on monocot model plants; format: in vivo; details: green area (RGB)
# Protocol: (§4) A 96 well plate was used as a stock plate for preparing application solutions for 8 repeats. Each row contained different concentrations per chemical. Maximal concentration for application was 1.5 kg/ha and dilution factor is 2.5. Chemical application was performed one day after thinning out in a chemical hood. 5 μL applied on first two true leaves in each well using 12 channel pipettes. Data collection: RGB (red, green, blue) data for green area per well was documented using camera. Data is collected at a few time points during the experiment: one day after thinning and before chemical application, two-, six- or nine-days post application. During the last two documentations, visual phenotyping was performed. Data analysis: Given RGB results and visual phenotype scores, a student t-test conducted to compare between treatment and control performance for continuous data (RGB) and Fisher exact test to analyze the non-continuous data (phenotypic scores). Dose-Response curves are generated for each treatment to infer ED50 and max. inhibition parameters, using treatment's log concentration range as the dependent variable and normalized green area.
# These experiments are conducted similarly except that either Arabidopsis thaliana or Eragrostis teff seeds were sowed (5-10 or 5-7, respectively), plant thinning out was not performed, compound dissolved into a final solution of 50% acetone, 49.9% DDW, compound application was done at 30 μL volume per well directly on sowed soil before plant emergence and data was collected 10 or 7 days after chemical application on dicot or monocot plants, respectively.
# Plate imaging performed at 11 and 18 DAA. RGB data for green area per well was documented and used to extract % inhibition. […]
# as §3
# Arabidopsis thaliana [17] = experiment: HTPS pre-emergence on dicot model plants; format: in vivo; details: green area (RGB)
# Protocol: as §4, with “Dose-Response curves are generated for each treatment to infer ED50 and max. inhibition parameters, using treatment's log concentration range as the dependent variable and normalized green area.” left out
# as §3
# Amaranthus palmeri [18] = experiment: LTP post-emergence greenhouse screen
# Protocol: as §7, §8
# Amaranthus retroflexus = experiment: LTP pre-emergence greenhouse screen; format: in vivo
# Protocol: as §1, §2
smiles,measurement,setting,value
CC(O)C(N)C/C=C/CC(=O)O (stereo not shown) [Compound 101],control of weeds (in words),"[1]; monocot and eudicot weeds species, post-emergence and pre-emergence, most of the species tested",excellent control
same,Drd: disturbed root growth,Poa annua [2],"IG (80), Drd (80)"
same,IG: inhibited growth,Poa annua [2],"IG (80), Drd (80)"
same,Drd: disturbed root growth,Lolium multiflorum [3],Drd (60)
same,Drd: disturbed root growth,Lolium perenne [4],80
same,IG: inhibited growth,Lolium perenne [4],60
same,DAB: disturbed apical bud,Echinochloa colona [5],60
same,Drd: disturbed root growth,Echinochloa colona [5],Drd (80)
same,IG: inhibited growth,Echinochloa colona [5],80
same,DAB: disturbed apical bud,Digitaria sanguinalis [6],"IG (80), DAB (80),"
same,Drd: disturbed root growth,Digitaria sanguinalis [6],Drd (80)
same,IG: inhibited growth,Digitaria sanguinalis [6],"IG (80), DAB (80),"
same,IG: inhibited growth,Poa annua [7],IG (100)
same,IG: inhibited growth,Echinochloa crus-galli [8],IG (100)
same,IG: inhibited growth,Digitaria sanguinalis [9],IG (100)
same,IG: inhibited growth,Echinochloa colona [10],IG (100)
same,IG: inhibited growth,Lolium multiflorum [11],IG (100)
same,IG: inhibited growth,Lolium perenne [12],IG (80)
same,IG: inhibited growth,Phalaris paradoxa,IG (80)
same,IG: inhibited growth,Alopecurus myosuroides,IG (80)
same,inhibition at up to 1500 g/ha,Arabidopsis thaliana [13],100%
same,Bl: bleaching,Alopecurus monureide's,60
same,DAB: disturbed apical bud,Alopecurus monureide's,"IG (80), DAB (80),"
same,Drd: disturbed root growth,Alopecurus monureide's,80
same,IG: inhibited growth,Alopecurus monureide's,"IG (80), DAB (80),"
same,DAB: disturbed apical bud,Setaria viridis,"IG (60), DAB (60)"
same,IG: inhibited growth,Setaria viridis,"IG (60), DAB (60)"
same,control (in words),[14],excellent to very good control
same,DAB: disturbed apical bud,Echinochloa crus-galli [15],60
same,Drd: disturbed root growth,Echinochloa crus-galli [15],Drd (80)
same,IG: inhibited growth,Echinochloa crus-galli [15],80
C[C@@H](O)[C@@H](N)/C=C/C=C/C(=O)O [Compound 110],activity on dicots and monocots (in words),[1]; applied pre-emergence,good to moderate activity
same,Drd: disturbed root growth,Amaranthus tuberculatus,Drd (80)
same,IG: inhibited growth,Poa annua [7],IG (60)
same,IG: inhibited growth,Matricaria chamomilla,IG (60)
same,IG: inhibited growth,Amaranthus palmeri [16],IG (80)
same,Bl: bleaching,Galium aparine,Bl (60)
same,inhibition at up to 1500 g/ha,Arabidopsis thaliana [13],100%
same,control (in words),[14],excellent to very good control
NC1(C/C=C/CC(=O)O)CC1 [Compound 112],Max inhibition (%),Eragrostis teff,51%
same,Max inhibition (%),Arabidopsis thaliana [17],100%
same,inhibition at up to 1500 g/ha,Arabidopsis thaliana [13],87.5%
NC1CCC/C(=C\CCC(=O)O)C1 (stereo not shown) [Compound 119],growth inhibition (in words),[1],very good to moderate growth inhibition
same,IG: inhibited growth,Echinochloa colona [10],IG (60)
same,IG: inhibited growth,Amaranthus palmeri [16],IG (80)
same,inhibition at up to 1500 g/ha,Arabidopsis thaliana [13],100%
NC1CCCC(/C=C/CC(=O)O)C1 (stereo not shown) [Compound 124],growth inhibition (in words),[1],very good to moderate growth inhibition
same,IG: inhibited growth,Poa annua [7],IG (100)
same,IG: inhibited growth,Echinochloa colona [10],IG (100)
same,IG: inhibited growth,Amaranthus palmeri [16],IG (80)
same,IG: inhibited growth,Alopecurus myosuroides,IG (80)
same,inhibition at up to 1500 g/ha,Arabidopsis thaliana [13],100%
NC1(C/C=C/CC(=O)O)CCC1 [Compound 125],growth inhibition (in words),[1],very good to moderate growth inhibition
same,IG: inhibited growth,Poa annua [2],IG (60)
same,IG: inhibited growth,Amaranthus palmeri [18],IG (60)
same,IG: inhibited growth,Poa annua [7],IG (100)
same,IG: inhibited growth,Matricaria chamomilla,IG (60)
same,IG: inhibited growth,Lolium perenne [12],IG (80)
same,IG: inhibited growth,Amaranthus palmeri [16],IG (80)
same,IG: inhibited growth,Alopecurus myosuroides,IG (60)
same,inhibition at up to 1500 g/ha,Arabidopsis thaliana [13],100%
same,IG: inhibited growth,Setaria viridis,IG (60)
NC(C/C=C/CC(=O)O)C1CC1 (stereo not shown) [Compound 146],growth inhibition (in words),[1],very good to moderate growth inhibition
same,Max inhibition (%),Eragrostis teff,100%
same,IG: inhibited growth,Poa annua [7],IG (60)
same,IG: inhibited growth,Amaranthus palmeri [16],IG (80)
same,IG: inhibited growth,Alopecurus myosuroides,IG (60)
same,inhibition at up to 1500 g/ha,Arabidopsis thaliana [13],100%
NC1CCCC(C#CCC(=O)O)C1 (stereo not shown) [Compound 154],growth inhibition (in words),[1],very good to moderate growth inhibition
same,IG: inhibited growth,Poa annua [7],IG (100)
same,IG: inhibited growth,Echinochloa colona [10],IG (100)
same,IG: inhibited growth,Amaranthus palmeri [16],IG (80)
same,IG: inhibited growth,Alopecurus myosuroides,IG (80)
same,inhibition at up to 1500 g/ha,Arabidopsis thaliana [13],100%
CC(C)C(N)C/C=C/CC(=O)O (stereo not shown) [Compound 157],inhibition at up to 1500 g/ha,Arabidopsis thaliana [13],100%
CCCC(N)C/C=C/CC(=O)O (stereo not shown) [Compound 166],Max inhibition (%),Eragrostis teff,47%
same,inhibition at up to 1500 g/ha,Arabidopsis thaliana [13],75%
CC(N)CC/C=C/CC(=O)O (stereo not shown) [Compound 169],IG: inhibited growth,Amaranthus retroflexus,IG (80)
same,inhibition at up to 1500 g/ha,Arabidopsis thaliana [13],100%
CC(N)CCC/C=C/C(=O)O (stereo not shown) [Compound 170],IG: inhibited growth,Amaranthus retroflexus,IG (90)
same,inhibition at up to 1500 g/ha,Arabidopsis thaliana [13],100%
CC(O)C(N)/C=C/CCC(=O)O (stereo not shown) [Compound 172],inhibition at up to 1500 g/ha,Arabidopsis thaliana [13],100%
